Experimental data: patent US7989420B2, “Smooth muscle relaxation” (New York Medical College, priority 2006, dated 2011)

Columns and labels:
sGC = assay: Western blot of sGC expression in BPA; type: cell-based, bovine; settings: organ culture with 100 μM ALA, Western analysis
Procedure: Rings from studies on contractile function were snap-frozen in liquid nitrogen, crushed and homogenized in lysis buffer (50 mM Tris-HCl, pH 8.0, 150 mM NaCl, 1 mM EDTA, 1% Triton X-100, 0.5% sodium deoxycholate, 0.1% sodium dodecyl sulfate, 1% of a protease inhibitor cocktail (Sigma) and 1% of a phosphatase inhibitor cocktail (Sigma). The protease inhibitor cocktail included 4-(2-aminoethyl)benzenesulfonyl floride hydrocholride, aprotinin, bestatin hydrochloride, N-(trans-epoxsuccinyl)-L-leucine-4-guanidinobutylamide, leupeptine hemisulfate, pepstatin and the phosphatase inhibitor cocktail included sodium orthovandate, sodium molybdate, sodium tartarate, and imidazole. Protein concentration was determined and 30 μg of protein samples were prepared in electrophoresis sample buffer containing 3% SDS and 3% β-mercaptoethanol and were separated using a 12% gel SDS-PAGE electrophoresis. Membranes were blocked for 1 h in TBST-5% milk and incubated overnight with phospho-VASP antibodies (diluted 1:1000). Membranes were exposed to a secondary horse radish peroxidase linked antibody and visualized with an ECL kit (Amersham). […] Membranes were subsequently washed, blocked and detected for total VASP. […] Expression of sGC was detected with β-sGC subunit antibodies (diluted 1:2000), employing anti-rabbit secondary antibodies, and a protocol where membranes were blocked for 2 h. […]

endothelium-rubbed aorta = assay: Protoporphyrin IX fluorescence in aorta of rats treated with ALA in vivo; set-up: species or system rat; settings: single dose 60 mg/kg ALA i.p., 24 hours after treatment, vs saline-injected rats
Procedure: The rats were pretreated with 60 mg/kg ALA or with a saline vehicle (i.p.). After 24 hours they were anesthetized with 50 mg/kg sodium pentobarbital and the aorta was removed for in vitro studies. Isolated aortic rings were studied for changes in protoporphyrin IX fluorescence and force under the same conditions similar to those used for bovine pulmonary arteries described above, except that 1 gram of passive force was used.

bovine bronchi = assay: Protoporphyrin IX fluorescence in organ cultured bovine bronchi; type: cell-based; settings: organ culture with 0.1 mM ALA
Source text: (§1) Determination Changes in Protoporphyrin 1× and Heme Levels. Methods for the detection of protoporphyrin IX tissue fluorescence developed for the detection in cancerous cells with tissue depths of up to several millimeters (27) were adapted for detecting changes in the endogenous levels of protoporphyrin IX in BPA rings which were organ cultured with ALA. When excited with light in the regions of 505 and 540 nm, protoporphyrin IX has an emission in the region of 635 nm. […] Increases in protoporphyrin IX were measured using an excitation wavelength of 528±20 nm and emission of 620±40 nm in intact vessels. Ring segments of approximately equal size (˜4 mm in diameter and length) were centered on the bottom of the ˜6 mm diameter wells of a 96 well microplate with 200 μl of Krebs containing with 10 mM Hepes buffer (pH 7.4), and the fluorescence was measured from the bottom surface of the plate using BIOTEK fluorescent microplate reader (Model FLx800i). Data are reported in the arbitrary fluorescence units measured (AU), after subtraction of the low levels of background fluorescence observed in the absence of BPA.
Bovine bronchi were isolated from the same lungs used for pulmonary arteries, and studied for changes in protoporphyrin IX fluorescence and force under the same conditions as bovine pulmonary arteries described above. […]

[1] = test system: bovine pulmonary arteries (BPA); assay: Protoporphyrin IX-associated tissue fluorescence in organ cultured BPA rings; type: cell-based; settings: for BPA fluorescence: 100 μM ALA without or with 100 μM deferoxamine
Procedure: (§2) Organoid Culture Isolated Arteries for Heme Modulation. Intralobar BPA were isolated from slaughterhouse-derived bovine calf lungs, cleaned from surrounding tissue, and placed in 37° C. Dulbecco's Modified Eagle Medium (DMEM) containing 10% fetal bovine serum, penicillin, streptomycin, and fungizone (complete media). The arteries were isolated and cut into rings ˜2 mm in diameter and width, and the endothelium was removed by gentle rubbing of the lumen. Various compounds (i.e. ALA, FeSO4(Fe), deferoxamine) were added as described in the Results to various experimental groups, and these arteries were organ cultured overnight for 24 h in complete media in a 37° C.-5% CO2 incubator. Preliminary experiments on the time course for detection protoporphyrin IX accumulation and the effects of organ culture with doses of ALA in the 10-100 μM concentration range on contractile function, and minimizing the duration of organ culture were considerations that contributed to selecting the 24 h culture period used in this study.
as §1

[2] = test system: bovine pulmonary arteries (BPA); assay: Isometric force generation to serotonin (5-HT) in organ cultured BPA rings; type: cell-based; settings: 24 h organ culture
Procedure: as §2
Studies on the Regulation of Contractile Function. Following the overnight incubation, arterial rings were mounted on wire hooks attached to Grass (FT03) force displacement transducers for measurement of changes in isometric force. Tension was adjusted to 5 g, which is the optimal passive force for maximal contraction. Changes in force were recorded on a Grass polygraph (model 7), while vessels were incubated in 10-ml baths (Metro Scientific), which were individually thermostated (37° C.) in Krebs buffer gassed with 21% O2-5% CO2 (balance N2) in the absence of compounds used to modulate BPA protoporphyrin IX levels. Arteries were incubated for 1 h during which passive tension was adjusted to maintain 5 grams. The vessels were then depolarized with Krebs containing 123 mM KCl (High K^+) in place of NaCl, followed by re-equilibration with Krebs, prior to exposure to the experimental protocols. Following the wash with Krebs buffer after the High K^+ treatment, and a 30 min equilibration, BPA were then contracted with serotonin (5-HT) in a dose dependent manner to determine the response to this contractile agent. In some experiments, BPA were pretreated with the sGC inhibitor, 10 μM ODQ, for 15 min before contraction with serotonin. The effects of ODQ on relaxation to NO was determined by first contracting organ cultured control and ODQ-treated BPA with 1 μM 5-HT (after the initial exposure to increasing concentrations of 5-HT and a 30 min equilibration in Krebs).

NCC(=O)CCC(=O)O [ALA, δ-aminolevulinic acid]
levels of sGC relative to BPA organ cultured in the absence of ALA (sGC): 71±19%
protoporphyrin IX fluorescence in endothelium-rubbed aorta (endothelium-rubbed aorta): increased in protoporphyrin IX fluorescence
protoporphyrin IX fluorescence (bovine bronchi): time-dependent increase in protoporphyrin IX fluorescence
fluorescence potentially originating from protoporphyrin IX ([1]; 10 μM ALA, 24 h organ culture): did not cause a detectable increase in fluorescence
increase in fluorescence over the background fluorescence of BPA ([1]; 50 μM and 100 μM ALA, 24 h organ culture): up to 2 fold
BPA fluorescence ([1]; after 8 h of organ culture): 1015±79 AU
BPA fluorescence ([1]; after 24 h of organ culture): 1658±122 AU
concentration of protoporphyrin IX solution producing similar fluorescence ([1]; increase in BPA fluorescence caused by 100 μM ALA): ~3 µM
tissue fluorescence potentially originating from protoporphyrin IX ([1]; organ culture with 100 μM ALA, after 16 and 24 h of incubation): increase in tissue fluorescence
force generation to 5-HT ([2]; 10 μM ALA, appeared to depress force at higher doses of 5-HT): did not reach statistical significance
decrease in force generation to 5-HT ([2]; 50 μM and 100 μM ALA): 50-90%
force generation to 5-HT ([2]; 100 μM ALA, 0.1-10 μM 5-HT in the absence of ALA): markedly inhibit force generation
